# Reference: publication PMC10804683, “Identification of the pyridoxal 5′‐phosphate allosteric site in human pyridox(am)ine 5′‐phosphate oxidase” (Protein Science : A Publication of the Protein Society, 2024)
# Where a chain is given by its changes, count along the chain named. Where “and” joins values, the source holds several entries; their conditions need not be identical. Equal entries are not always repeated. Entries after “also recorded” stand apart in the source; their conditions may differ.
# How the values were obtained:
# [1] = molecular target: human PNPO wild type (holo-enzyme); set-up: method as in Barile et al. ([2020]); details: FMN fluorescence changes, ref Barile et al. ([2020]), read-out: PLP binding KD^FLUO; cited from earlier work
# [2] = molecular target: T1, apo-PNPO F48A/E50L/H248N/R258L (Homo sapiens, UniProt Q9NVS9, E50L/F48A/H248N/R258L); experiment: PLP binding by intrinsic fluorescence, apo quadruple variant; details: excitation 280 nm, 100 nM enzyme
# T1 construct: a main form corresponding to the entire protein; made in house; host or cells: E. coli BL21(DE3)
# T1 sequence (Q9NVS9 1-261 F48A/E50L/H248N/R258L): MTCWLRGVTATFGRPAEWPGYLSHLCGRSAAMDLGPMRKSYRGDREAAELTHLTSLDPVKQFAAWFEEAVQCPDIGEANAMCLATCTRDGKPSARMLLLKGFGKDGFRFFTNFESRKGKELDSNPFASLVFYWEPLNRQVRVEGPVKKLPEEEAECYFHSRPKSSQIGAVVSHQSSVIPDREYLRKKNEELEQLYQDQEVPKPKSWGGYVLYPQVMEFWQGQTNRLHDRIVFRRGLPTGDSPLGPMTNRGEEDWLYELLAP
# Text: (§1) PLP binding to PNPO can be detected and quantitatively measured using differential scanning fluorimetry (DSF) and also by measuring FMN fluorescence changes. We had previously attributed DSF changes to PLP binding at the active site, while FMN fluorescence changes were attributed to PLP binding at the allosteric site (Barile et al., [2019], [2020]). Previous experiments carried out with the PNPO R161C variant, affecting a residue that is essential for substrate binding and catalysis (and therefore also for PLP binding at the active site), confirms that DSF measurements only report PLP binding at the active site (Barile et al., [2021]; Table 1). […] We expected to observe no FMN fluorescence changes upon titration of the variants with PLP. However, this was not the case, and the dissociation constant values obtained by observing the FMN fluorescence emission were only up to threefold larger in the variants with respect to wild type PNPO (Figure 3). […] To check the second possibility, we measured intrinsic fluorescence changes of wild type and variant apo‐forms (i.e., without FMN) upon PLP titration. […]
# Analyses of PLP binding, based on FMN fluorescence increase observed upon binding of PLP to PNPO, were performed as described in Barile et al. ([2020]). […] Emission spectra were recorded from […], with excitation and emission slits set at 3 and 5 nm, respectively. […]
# [3] = molecular target: T2, human PNPO F48A/E50L/H248N/R258L variant (Homo sapiens, UniProt Q9NVS9, E50L/F48A/H248N/R258L); experiment: PLP binding by DSF, quadruple variant; details: 50 mM Na-HEPES pH 7.6, 2 μM enzyme
# T2 construct: a main form corresponding to the entire protein; made in house; host or cells: E. coli BL21(DE3)
# T2 sequence (Q9NVS9 1-261 F48A/E50L/H248N/R258L): T1 sequence (Q9NVS9 1-261 F48A/E50L/H248N/R258L)
# Text: as §1
# FIGURE 2 DSF measurements with F48A (a), F48A/E50L/R258L (b), F48A/E50L/H248N/R258L (c), and 1‐31del PNPO variants in the presence of different PLP concentrations. Upper panels: Fluorescence change is expressed as fractional variation as a function of temperature. […]
# human PNPO wild type = molecular target: T3, human PNPO wild type (Homo sapiens, UniProt Q9NVS9); set-up: a main form corresponding to the entire protein; made in house; host or cells: E. coli BL21(DE3); method as in Barile et al., [2020]; details: substrate-enzyme-PLP ternary complex, ref Barile et al., [2020]; cited from earlier work
# T3 sequence (Q9NVS9 1-261): T1 sequence (Q9NVS9 1-261 F48A/E50L/H248N/R258L) with A48F, L50E, N248H, L258R
structure (smiles),measurement,setting,value
"Cc1ncc(COP(=O)(O)O)c(C=O)c1O [PLP, pyridoxal 5′‐phosphate]",Kd,[1],0.95 ± 0.01 µM
same,Apo-enzyme PLP binding KD^FLUO,[2],no change in fluorescence was observed; also recorded: No binding
same,Kd,[3],6.07 µM and 6.1 µM
same,coefficient by which kCAT is reduced with PLP bound at the allosteric site,human PNPO wild type,around 0.15
